Data from patent US20240335465A1 (University of Virginia Patent Foundation, priority 2021, published 2024).

How the values were obtained:
DDR signaling [1] = assay: DDR signaling immunoblot in STING-reconstituted U2OS cells; type: cell-based, human; settings: cGAMP 18 hours
Description: Generation of U2OS-STING cells: WT U2OS cells were reconstituted with STING by integrating LentiORF-TMEM173 (CCSB-Broad Lentiviral Expression Collection, TMEM173, Cat #ccsbBroad304_05465) via lentiviral transduction of U2OS cells as described above. Exposure to blasticidin (10 μg/ml) for 14 days facilitated the selection of STING integrated cells whose protein over-expression profiles were assessed by immunoblotting.

PARylation = assay: PolyADP-ribosylation (PARylation) immunoblot; type: cell-based, human
From the text: Cells were collected by centrifugation, washed once with ice-cold PBS, lysed in RIPA buffer and analyzed by western blot to detect PARylation using pADPr Antibody (Santa Cruz sc-56198).

Nematostella vectensis = assay: DDR in starlet sea anemones; type: in vivo; settings: whole animals; cGAMP in digitonin solution 10 minutes; doxorubicin 2 μM; 16 hours
From the text: Starlet sea anemones: Wild type, laboratory maintained, Self-sustaining Nematostella vectensis culture containing of 3-6 months old male and female animals (Putnam et al., 2007) was a kind gift from Timothy J. Jegla (Penn State University Department of Biology). They were maintained in 6-well plates containing water with Instant Ocean® Aquarium Sea Salt (50 gm/l) and fed brine shrimp. […] Permeabilization solution was removed and the animals returned to maintenance sea salt water. Doxorubicin was added to the maintenance sea salt water to a final concentration of 2 μM. 16 hours post treatment. N. vectensis were collected and washed once with cold PBS before the addition of 200 μl RIPA buffer. Samples were homogenized by sonication and centrifuged at 4° C. to remove debris. Soluble lysates were quantified for protein analysis by western blot.

DDR signaling [2] = assay: DDR signaling immunoblotting in THP1 cells

Nc1nc2c(ncn2[C@@H]2O[C@@H]3COP(=O)(O)O[C@H]4[C@@H](O)[C@H](n5cnc6c(N)ncnc65)O[C@@H]4COP(=O)(O)O[C@@H]2[C@@H]3O)c(=O)[nH]1 [cGAMP, cyclic guanosine monophosphate-adenosine monophosphate]
DDR signaling (γH2AX, pCHK2) (DDR signaling [1]): exhibiting biochemical evidence of DDR signaling
cGAMP-induced suppression of protein PARylation in ATM-inhibited cells (PARylation; 25 μM KU-55933): proceeded normally in ATM-inhibited cells
total cellular level of protein PARylation (PARylation; WT THP1, H2O2 or doxorubicin): substantially reduced total cellular level of protein PARylation
PARP1 PARylation (PARylation; WT THP1, cGAMP 6 hours, H2O2 10 minutes, anti-PARP1 IP): notably reduced
STING requirement for cGAMP-induced suppression of protein PARylation (PARylation; WT and STING−/− THP1, 250 μM H2O2 10 minutes): STING was required
TBK1 phosphorylation (pTBK1) (Nematostella vectensis): TBK1 phosphorylation
γH2AX (Nematostella vectensis): elevated levels of γH2AX
cGAMP-mediated induction of γH2AX and pCHK2 (DDR signaling [2]; IFNAR1 and STAT2 knockdown THP1 cells): failed to impede cGAMP-mediated induction of γH2AX and pCHK2
activation of DDR by cGAMP (H2AX, ATM, CHK2 phosphorylation) (DDR signaling [2]; STING−/− THP1 cells, 16 hours): abrogated by the deletion of STING
DDR activation (γH2AX, pCHK2) (DDR signaling [2]; THP1, LPS 500 ng/ml 6 hours, cGAMP 16 hours): activated the DDR
ATR phosphorylation (pATR) (DDR signaling [2]; WT THP1): inducing ATR phosphorylation
CHK1 activation (pCHK1) (DDR signaling [2]; WT THP1): neither activation of CHK1
cGAMP-induced DDR signaling (DDR signaling [2]; cGAS−/− THP1 cells, 16 hours): proceeded normally in cGAS-deficient cells
γH2AX in target THP1 cells incubated with conditioned media from cGAMP treated cells (DDR signaling [2]; conditioned media collected after 18 hours, 18 hours on target cells): failed to induce γH2AX
cGAMP-induced DDR signaling (DDR signaling [2]; shTBK1 knockdown THP1 cells): substantially reduced cGAMP-induced DDR signaling
